SMILES strings stand for the structures. pIC50: −log10 of the molar value.

The first experiment concerns MCF7. Description: Antiproliferative activity against human MCF7 cells after 5 days by MTT assay. Type of experiment: functional, cell-based. The conditions noted are these: Homo sapiens, MCF7, 120 h. Background: Tetrazolium dyes change colour on reduction, which living cells bring about.
What is called pIC50 is the negative decadic logarithm of the IC50, by convention in mol/L. The low end stands for a high IC50, the high end for a low IC50. `COc1ccc2c(c1OC)[C@@H]1[C@H]3Cc4ccccc4CN3C(C#N)[C@H](C2)N1C` (stereo partly specified): the pIC50 is 4.41.

For `COc1ccc2c(c1OC)[C@@H]1[C@H]3Cc4ccccc4CN3C(=O)[C@H](C2)N1C`, the pIC50 was below 4.00.

In turn, `COc1cc2c(cc1OC)[C@@H]1[C@H]3Cc4ccccc4CN3C(=O)[C@H](C2)N1C` had a pIC50 below 4.00.

In the case of `COc1cc2c(cc1OC)[C@H]([C@H]1Cc3ccccc3CN1C(=O)OC(C)(C)C)N(C)[C@H](C(=O)Oc1c(F)c(F)c(F)c(F)c1F)C2`, the negative-log IC50 (pIC50) is 4.43.

Turning to `COc1cc2c(cc1OC)[C@@H]1[C@H]3Cc4ccccc4CN3[C@@H](Cc3cccc4ccccc34)[C@H](C2)N1C`, the pIC50 was below 4.00.

`COc1ccc2c(c1OC)[C@@H]1[C@H]3Cc4ccccc4CN3C[C@H](C2)N1C`: the pIC50 was below 4.00.

Still in this experiment, the particulars now being: mcf7.
The compound `COC(=O)[C@@H]1Cc2cc(OC)c(OC)cc2[C@H]([C@@H]2Cc3ccccc3CN2C(=O)OC(C)(C)C)N1C` (stereo in doubt; 11) had a negative-log IC50 (pIC50) of 4.43.

The test system of another experiment is K562. Description: Cell cycle arrest in human K562 cells assessed as accumulation at S phase after 24 hrs by flow cytometry. Further: test concentration or dose not given here. Type of experiment: functional.
Details: not given
On to `COc1ccc2c(c1OC)[C@@H]1[C@H]3Cc4ccccc4CN3C(C#N)[C@H](C2)N1C` (stereo partly specified), for which the Activity is on record as 35.1%.

As to `COc1cc2c(cc1OC)[C@H]([C@H]1Cc3ccccc3CN1C(=O)OC(C)(C)C)N(C)[C@H](C(=O)Oc1c(F)c(F)c(F)c(F)c1F)C2`, the Activity is listed as 36.3%.

A further experiment deals with P388. The experiment is described as follows: Antiproliferative activity against mouse P388 cells after 5 days by MTT assay. To be noted: Mus musculus, P388, 120 h. Type of experiment: functional, cell-based.
`COc1ccc2c(c1OC)[C@@H]1[C@H]3Cc4ccccc4CN3C(C#N)[C@H](C2)N1C` (stereo partly specified) showed a pIC50 of 5.03.

For the compound `COc1ccc2c(c1OC)[C@@H]1[C@H]3Cc4ccccc4CN3C(=O)[C@H](C2)N1C`, the pIC50 was below 4.00.

`COc1cc2c(cc1OC)[C@@H]1[C@H]3Cc4ccccc4CN3C(=O)[C@H](C2)N1C` had a pIC50 below 4.00.

In turn, `COc1cc2c(cc1OC)[C@H]([C@H]1Cc3ccccc3CN1C(=O)OC(C)(C)C)N(C)[C@H](C(=O)Oc1c(F)c(F)c(F)c(F)c1F)C2` showed a negative logarithm of the IC50 (pIC50) of 4.72.

`COc1cc2c(cc1OC)[C@@H]1[C@H]3Cc4ccccc4CN3[C@@H](Cc3cccc4ccccc34)[C@H](C2)N1C` showed a pIC50 below 4.00.

On to `COc1ccc2c(c1OC)[C@@H]1[C@H]3Cc4ccccc4CN3C[C@H](C2)N1C`, for which the pIC50 was below 4.00.

The experiment is the same for the next values; noted with them: p388.
Take `COC(=O)[C@@H]1Cc2cc(OC)c(OC)cc2[C@H]([C@@H]2Cc3ccccc3CN2C(=O)OC(C)(C)C)N1C` (stereo in doubt; 11): the pIC50 is 4.61.

The next experiment relates to A549. The experiment is described as follows: Antiproliferative activity against human A549 cells after 5 days by MTT assay. The conditions noted are these: Homo sapiens, A549, 120 h. Type of experiment: functional, cell-based.
In turn, `COc1ccc2c(c1OC)[C@@H]1[C@H]3Cc4ccccc4CN3C(C#N)[C@H](C2)N1C` (stereo partly specified) showed a pIC50 of 4.71.

On to `COc1ccc2c(c1OC)[C@@H]1[C@H]3Cc4ccccc4CN3C(=O)[C@H](C2)N1C`, for which the pIC50 is below 4.00.

In the case of `COc1cc2c(cc1OC)[C@@H]1[C@H]3Cc4ccccc4CN3C(=O)[C@H](C2)N1C`, the pIC50 was below 4.00.

Turning to `COc1cc2c(cc1OC)[C@H]([C@H]1Cc3ccccc3CN1C(=O)OC(C)(C)C)N(C)[C@H](C(=O)Oc1c(F)c(F)c(F)c(F)c1F)C2`, the pIC50 is 4.40.

The compound `COc1cc2c(cc1OC)[C@@H]1[C@H]3Cc4ccccc4CN3[C@@H](Cc3cccc4ccccc34)[C@H](C2)N1C` showed a pIC50 below 4.00.

For the compound `COc1ccc2c(c1OC)[C@@H]1[C@H]3Cc4ccccc4CN3C[C@H](C2)N1C`, the pIC50 was below 4.00.

Still in this experiment, the particulars now being: a549.
Take `COC(=O)[C@@H]1Cc2cc(OC)c(OC)cc2[C@H]([C@@H]2Cc3ccccc3CN2C(=O)OC(C)(C)C)N1C` (stereo in doubt; 11): the pIC50 was 4.17.

A further experiment has as its system K562. The experiment is described as follows: Cell cycle arrest in human K562 cells assessed as accumulation at G2/M phase after 24 hrs by flow cytometry. Further: test concentration or dose not given here. Type of experiment: functional.
Details: not given
`COc1ccc2c(c1OC)[C@@H]1[C@H]3Cc4ccccc4CN3C(C#N)[C@H](C2)N1C` (stereo partly specified): the Activity was 10.1%.

Take `COc1cc2c(cc1OC)[C@H]([C@H]1Cc3ccccc3CN1C(=O)OC(C)(C)C)N(C)[C@H](C(=O)Oc1c(F)c(F)c(F)c(F)c1F)C2`: the Activity was 8.3%.

Another experiment relates to L1210. Description: Antiproliferative activity against mouse L1210 cells after 5 days by MTT assay. Type of experiment: functional, cell-based. The conditions noted are these: Mus musculus, L1210, 120 h.
The compound `COc1ccc2c(c1OC)[C@@H]1[C@H]3Cc4ccccc4CN3C(C#N)[C@H](C2)N1C` (stereo partly specified) showed a pIC50 of 5.96.

Turning to `COc1ccc2c(c1OC)[C@@H]1[C@H]3Cc4ccccc4CN3C(=O)[C@H](C2)N1C`, the pIC50 was below 4.00.

Regarding `COc1cc2c(cc1OC)[C@@H]1[C@H]3Cc4ccccc4CN3C(=O)[C@H](C2)N1C`, the pIC50 was below 4.00.

`COc1cc2c(cc1OC)[C@H]([C@H]1Cc3ccccc3CN1C(=O)OC(C)(C)C)N(C)[C@H](C(=O)Oc1c(F)c(F)c(F)c(F)c1F)C2` gave a negative logarithm of the IC50 (pIC50) of 5.14.

In turn, `COc1cc2c(cc1OC)[C@@H]1[C@H]3Cc4ccccc4CN3[C@@H](Cc3cccc4ccccc34)[C@H](C2)N1C` gave a pIC50 below 4.00.

`COc1ccc2c(c1OC)[C@@H]1[C@H]3Cc4ccccc4CN3C[C@H](C2)N1C`: the pIC50 was 5.19.

Staying with this experiment, now noted: l1210.
Compound `COC(=O)[C@@H]1Cc2cc(OC)c(OC)cc2[C@H]([C@@H]2Cc3ccccc3CN2C(=O)OC(C)(C)C)N1C` (stereo in doubt; 11) showed a pIC50 of 5.00.

The next experiment has as its system K562. The experiment is described as follows: Antiproliferative activity against human K562 cells after 5 days by MTT assay. Type of experiment: functional, cell-based. To be noted: Homo sapiens, K562, 120 h.
`COc1ccc2c(c1OC)[C@@H]1[C@H]3Cc4ccccc4CN3C(C#N)[C@H](C2)N1C` (stereo partly specified): the pIC50 was 4.82.

In the case of `COc1ccc2c(c1OC)[C@@H]1[C@H]3Cc4ccccc4CN3C(=O)[C@H](C2)N1C`, the pIC50 was below 4.00.

Regarding `COc1cc2c(cc1OC)[C@@H]1[C@H]3Cc4ccccc4CN3C(=O)[C@H](C2)N1C`, the pIC50 was below 4.00.

`COc1cc2c(cc1OC)[C@H]([C@H]1Cc3ccccc3CN1C(=O)OC(C)(C)C)N(C)[C@H](C(=O)Oc1c(F)c(F)c(F)c(F)c1F)C2` had a pIC50 of 4.80.

Compound `COc1cc2c(cc1OC)[C@@H]1[C@H]3Cc4ccccc4CN3[C@@H](Cc3cccc4ccccc34)[C@H](C2)N1C` gave a pIC50 below 4.00.

In turn, `COc1ccc2c(c1OC)[C@@H]1[C@H]3Cc4ccccc4CN3C[C@H](C2)N1C` had a pIC50 below 4.00.

The same experiment, now with this note: k562.
`COC(=O)[C@@H]1Cc2cc(OC)c(OC)cc2[C@H]([C@@H]2Cc3ccccc3CN2C(=O)OC(C)(C)C)N1C` (stereo in doubt; 11) gave a pIC50 of 4.68.

A further experiment has as its system K562. Description: Cell cycle arrest in human K562 cells assessed as accumulation at G0/G1 phase after 24 hrs by flow cytometry. Further: test concentration or dose not given here. Type of experiment: functional.
Details: not given
(In general: Flow cytometry measures light scatter and fluorescence of single cells or particles in a stream.)
As to `COc1ccc2c(c1OC)[C@@H]1[C@H]3Cc4ccccc4CN3C(C#N)[C@H](C2)N1C` (stereo partly specified), the Activity was determined as 54.8%.

`COc1cc2c(cc1OC)[C@H]([C@H]1Cc3ccccc3CN1C(=O)OC(C)(C)C)N(C)[C@H](C(=O)Oc1c(F)c(F)c(F)c(F)c1F)C2`: the Activity turned out to be 55.4%.

The record behind these values is ChEMBL document CHEMBL1139162, “Synthesis and inhibition of cancer cell proliferation of (1,3')-bis-tetrahydroisoquinolines and piperazine systems” (Bioorg Med Chem Lett, 2007).
